Our source for the GI50 and TGI values is PubChem BioAssay (NCI).

Structures are written as SMILES.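 Five compound concentrations were applied to cells in 96-well plates for 48 hours; endpoints were derived by simple linear interpolation of the resulting dose-response curve. GI50: concentration for 50% inhibition of growth. TGI is the concentration that stops growth completely.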

Some test systems named below: HOP-92 NSCLC; LOX IMVI melanoma; OVCAR-5 ovarian; SNB-75 CNS; HOP-62 NSCLC; BT-549 breast; SK-MEL-5 melanoma; HS 578T breast; PC-3 prostate; CAKI-1 renal.
What all share (assay): inhibition of tumour cell growth, NCI panel, 48 h

In the case of `COc1cc(/C=C2\CC3C4CCC5=CC(=O)CC[C@]5(C)C4CC[C@]3(C)C2=O)ccc1OCCN1CCCC1` (stereo not given in full), the GI50 with HOP-92 NSCLC was 1.41 µM; in the assay on LOX IMVI melanoma, 2.01 µM; with OVCAR-5 ovarian, 2.64 µM; in the assay with SNB-75 CNS, 3.47 µM; in the assay with HOP-62 NSCLC, 2.33 µM; with BT-549 breast it was 8.44 µM. Besides, the GI50 in the assay with SK-MEL-5 melanoma was 1.8 µM; in the assay with HS 578T breast, 3.22 µM; in the assay with PC-3 prostate it was 2.35 µM; with CAKI-1 renal, 2.89 µM. Further, the TGI in the assay with HOP-92 NSCLC was 3.87 µM; with LOX IMVI melanoma it was 3.97 µM; with OVCAR-5 ovarian, 8.26 µM; with SNB-75 CNS, 11.1 µM; in the assay on HOP-62 NSCLC, 6.11 µM; with BT-549 breast, 23.3 µM. Moreover, the TGI in the assay on SK-MEL-5 melanoma came to 3.5 µM; in the assay with HS 578T breast it was 8.87 µM; in the assay on PC-3 prostate, 8.31 µM; in the assay on CAKI-1 renal it was 10.5 µM.
In the case of `CCN1CCN(Cc2ccc(Nc3ncc(F)c(-c4cc(F)c5nc(C)n(C(C)C)c5c4)n3)nc2)CC1`, the GI50 in the assay on HOP-92 NSCLC was 0.0337 µM; in the assay on LOX IMVI melanoma, 1.41 µM; in the assay on OVCAR-5 ovarian it was 8.53 µM; in the assay on SNB-75 CNS, 0.094 µM; in the assay on HOP-62 NSCLC, 6.68 µM; in the assay with BT-549 breast, 6.54 µM. Further, the GI50 in the assay with SK-MEL-5 melanoma was 0.392 µM; with HS 578T breast, 0.745 µM; in the assay with PC-3 prostate, 0.0527 µM; in the assay with CAKI-1 renal it was 0.187 µM. The TGI in the assay on HOP-92 NSCLC was found to be 50 µM; in the assay on LOX IMVI melanoma, 10.9 µM; in the assay on OVCAR-5 ovarian, 50 µM; in the assay on SNB-75 CNS, 6.68 µM; with HOP-62 NSCLC it was 13.8 µM; with BT-549 breast, 13.7 µM. For the same molecule, the TGI amounted to 10.3 µM with SK-MEL-5 melanoma, 15.3 µM with HS 578T breast, 11.1 µM with PC-3 prostate and 7.51 µM in the assay with CAKI-1 renal.
On to `Cc1nc2ccc(-n3ncc(C(=O)c4cc5ccccc5[nH]4)c3N)cc2[nH]1`, for which the GI50 is 21.9 µM in the assay on HOP-92 NSCLC; 2.57 µM in the assay with LOX IMVI melanoma; 16 µM in the assay with OVCAR-5 ovarian; 0.945 µM with SNB-75 CNS; 4.9 µM in the assay with HOP-62 NSCLC; 5.43 µM in the assay on BT-549 breast. Moreover, the GI50 was 5.46 µM with SK-MEL-5 melanoma, 10.5 µM in the assay on HS 578T breast, 9.65 µM with PC-3 prostate and 7.16 µM in the assay on CAKI-1 renal. In addition, the TGI is 98.9 µM in the assay with HOP-92 NSCLC; 15.2 µM in the assay on LOX IMVI melanoma; over 100 µM in the assay with OVCAR-5 ovarian; over 100 µM in the assay on SNB-75 CNS; 51.6 µM with HOP-62 NSCLC; 38.6 µM with BT-549 breast. Moreover, the TGI with SK-MEL-5 melanoma was 18.4 µM; with HS 578T breast, over 100 µM; in the assay with PC-3 prostate, over 100 µM; with CAKI-1 renal it was over 100 µM.
As to `CCOC(=O)c1c(C)n([O-])c2cc(F)c(F)cc2[n+]1=O`, the GI50 in the assay with HOP-92 NSCLC was 1.1 µM; with LOX IMVI melanoma, 0.514 µM; with OVCAR-5 ovarian, 1.78 µM; in the assay on SNB-75 CNS, 1.91 µM; in the assay with HOP-62 NSCLC, 2.1 µM; with BT-549 breast, 1.84 µM. The GI50 in the assay on SK-MEL-5 melanoma was 2.31 µM; in the assay with HS 578T breast, 1.73 µM; in the assay with PC-3 prostate, 1.65 µM; in the assay on CAKI-1 renal, 1.63 µM. For the same molecule, the TGI in the assay with HOP-92 NSCLC came out at 3.08 µM; in the assay on LOX IMVI melanoma it was 1.63 µM; with OVCAR-5 ovarian it was 3.2 µM; in the assay on SNB-75 CNS, 3.54 µM; in the assay with HOP-62 NSCLC, 3.74 µM; in the assay with BT-549 breast it was 3.64 µM. Further, the TGI in the assay on SK-MEL-5 melanoma was 5.45 µM; in the assay with HS 578T breast, 5.06 µM; in the assay with PC-3 prostate, 3.59 µM; in the assay with CAKI-1 renal it was 3.04 µM.
`CCOc1cc(Cl)c(C(C)NC(=O)c2cccc(OC)c2)cc1OCC` (stereo not given): the GI50 in the assay with HOP-92 NSCLC is 12.1 µM; with LOX IMVI melanoma, 14.2 µM; with OVCAR-5 ovarian, over 52.7 µM; with SNB-75 CNS it was 4.79 µM; in the assay on HOP-62 NSCLC, 6.94 µM; with BT-549 breast, 13.4 µM. Besides, the GI50 with SK-MEL-5 melanoma was 7.39 µM; with HS 578T breast, 11.8 µM; in the assay on PC-3 prostate it was 15.1 µM; with CAKI-1 renal it was 11.1 µM. Also, the TGI with HOP-92 NSCLC is over 85.6 µM; with LOX IMVI melanoma, over 100 µM; in the assay on OVCAR-5 ovarian, over 100 µM; in the assay with SNB-75 CNS it was 49.9 µM; in the assay with HOP-62 NSCLC, over 100 µM; in the assay with BT-549 breast, over 100 µM. The TGI in the assay with SK-MEL-5 melanoma is 24.6 µM; with HS 578T breast, over 100 µM; in the assay with PC-3 prostate, over 100 µM; in the assay with CAKI-1 renal, over 100 µM.
As to `Cc1cc(O)ccc1C1(c2ccc(O)cc2C)OC(=O)c2ccccc21`, the GI50 in the assay with HOP-92 NSCLC was 15.4 µM; in the assay on LOX IMVI melanoma, 18.5 µM; in the assay on OVCAR-5 ovarian, 16 µM; in the assay on SNB-75 CNS, 15.1 µM; in the assay with HOP-62 NSCLC it was 16.7 µM; with BT-549 breast, 17.1 µM. For the same molecule, the GI50 in the assay on SK-MEL-5 melanoma was 18 µM; with HS 578T breast, 18.9 µM; in the assay on PC-3 prostate, 18 µM; in the assay with CAKI-1 renal, 16 µM. For the same molecule, the TGI in the assay on HOP-92 NSCLC came out at 29.7 µM; in the assay with LOX IMVI melanoma it was 37.7 µM; in the assay with OVCAR-5 ovarian it was 32.9 µM; with SNB-75 CNS, 29.5 µM; in the assay on HOP-62 NSCLC it was 32.5 µM; with BT-549 breast, 36.4 µM. Moreover, the TGI turned out to be 32.1 µM in the assay on SK-MEL-5 melanoma, 46.3 µM in the assay on HS 578T breast, 35.6 µM with PC-3 prostate and 30.1 µM with CAKI-1 renal.
For the molecule `CC(C)n1cc(-c2ccc3c(c2)N(C)CC3)c2c(NS(=O)(=O)c3ccn(C)n3)ccnc21`, the GI50 with HOP-92 NSCLC was 24.6 µM; in the assay on LOX IMVI melanoma, 47.8 µM; in the assay with OVCAR-5 ovarian, over 100 µM; in the assay with SNB-75 CNS it was 39.9 µM; in the assay with HOP-62 NSCLC, over 100 µM; in the assay with BT-549 breast it was 25.3 µM. In addition, the GI50 was 37.4 µM with SK-MEL-5 melanoma, 37 µM with HS 578T breast, 45.2 µM in the assay with PC-3 prostate and 44.3 µM in the assay on CAKI-1 renal. Further, the TGI with HOP-92 NSCLC, in the assay on LOX IMVI melanoma, with OVCAR-5 ovarian, in the assay on SNB-75 CNS, with HOP-62 NSCLC and in the assay with BT-549 breast was over 100 µM in each case. Besides, the TGI in the assay with SK-MEL-5 melanoma, in the assay on HS 578T breast, with PC-3 prostate and with CAKI-1 renal was over 100 µM in each case.
With `COc1ccc(C2=C(c3ccccc3)C(=O)N3CCCC3C2)cc1` (stereo not given), the GI50 in the assay on HOP-92 NSCLC is over 100 µM; with LOX IMVI melanoma, 0.115 µM; in the assay on OVCAR-5 ovarian, over 100 µM; with SNB-75 CNS, 18.9 µM; in the assay on HOP-62 NSCLC it was 39.8 µM; in the assay on BT-549 breast, 32.5 µM. Besides, the GI50 is 3.17 µM in the assay on SK-MEL-5 melanoma, over 100 µM in the assay with HS 578T breast, 1.48 µM in the assay with PC-3 prostate and 8.05 µM with CAKI-1 renal. In addition, the TGI in the assay on HOP-92 NSCLC, in the assay with LOX IMVI melanoma, with OVCAR-5 ovarian, in the assay on SNB-75 CNS, with HOP-62 NSCLC and in the assay on BT-549 breast was over 100 µM in each case. The TGI with SK-MEL-5 melanoma, in the assay with HS 578T breast, with PC-3 prostate and in the assay on CAKI-1 renal was over 100 µM throughout.
As to `COc1cc2c(Nc3ccc(-c4ccc(N)cc4)cc3)ncnc2c(OC)c1OC`, the GI50 in the assay on HOP-92 NSCLC is 18.3 µM; in the assay on LOX IMVI melanoma, 0.438 µM; in the assay with OVCAR-5 ovarian, 6.29 µM; in the assay on SNB-75 CNS, 16.6 µM; with HOP-62 NSCLC, 24.8 µM; in the assay on BT-549 breast, 7.99 µM. The GI50 was 1.94 µM in the assay with SK-MEL-5 melanoma, 11.5 µM in the assay on HS 578T breast, 5.46 µM with PC-3 prostate and 0.655 µM in the assay on CAKI-1 renal. Also, the TGI with HOP-92 NSCLC is over 100 µM; in the assay with LOX IMVI melanoma it was over 100 µM; with OVCAR-5 ovarian it was over 100 µM; in the assay with SNB-75 CNS, 64.9 µM; in the assay with HOP-62 NSCLC, over 100 µM; with BT-549 breast it was 55 µM. Further, the TGI with SK-MEL-5 melanoma was 5.3 µM; with HS 578T breast, over 68 µM; with PC-3 prostate, over 89.1 µM; with CAKI-1 renal, over 56.5 µM.
Take `CCOC(=O)C1=C(C)NC2SC(=O)/C(=C\c3cccc(Cl)c3)N2C1c1ccccc1` (stereo not given): the GI50 in the assay with HOP-92 NSCLC, with LOX IMVI melanoma, in the assay on OVCAR-5 ovarian, in the assay with SNB-75 CNS, with HOP-62 NSCLC and in the assay on BT-549 breast was over 100 µM each time. The GI50 is 58.7 µM in the assay with SK-MEL-5 melanoma, 90.4 µM in the assay with HS 578T breast, over 100 µM with PC-3 prostate and over 100 µM with CAKI-1 renal. The TGI with HOP-92 NSCLC, with LOX IMVI melanoma, in the assay on OVCAR-5 ovarian, in the assay on SNB-75 CNS, in the assay on HOP-62 NSCLC and with BT-549 breast was over 100 µM in each case. Besides, the TGI in the assay on SK-MEL-5 melanoma, in the assay with HS 578T breast, in the assay on PC-3 prostate and in the assay on CAKI-1 renal was over 100 µM in each case.
In the case of `CC(=O)OC1C(O)C(C)OC(OC2C(OC(=O)C3CCC4C(C3)OC3(CC(OC(=O)/C=C/c5ccccc5)C(C)CO3)C43CO3)OC(C)C(O)C2OC(C)=O)C1O` (stereo not given), the TGI stood at 0.0344 µM with HOP-92 NSCLC; 0.0213 µM in the assay with LOX IMVI melanoma; 0.144 µM with OVCAR-5 ovarian; 0.0317 µM with SNB-75 CNS; 0.0519 µM with HOP-62 NSCLC; 0.0147 µM in the assay with BT-549 breast. In addition, the TGI in the assay with SK-MEL-5 melanoma worked out at 0.0155 µM; in the assay on HS 578T breast, 0.00669 µM; with PC-3 prostate it was 0.0442 µM; in the assay on CAKI-1 renal it was 1.21 µM.
